{"source": "paper PMC12397098", "about": "“3-Monothiopomalidomide, a new immunomodulatory imide drug (IMiD), blunts inflammation and mitigates ischemic stroke in the rat” (GeroScience, 2025)", "key": {"Muscarinic M2 receptor": {"biological_target": "Muscarinic M2 receptor (Homo sapiens, UniProt P08172)", "assay": "PDSP radioligand binding", "conditions": "read-out: 3-MP concentration required to induce 50% inhibition of PDSP radioligand binding", "procedure": "(§1) To evaluate potential binding at classical neurological drug targets, 3-MP and 3,6’-DP were submitted to the National Institute on Mental Health (NIMH) Psychoactive Drug Screening Program (PDSP: Univ. N Carolina, Chapel Hill, NC, USA < https://pdspdb.unc.edu/pdspweb/ >) as powdered samples in the provided vials. The materials were then prepared at the PDSP in 10% DMSO, subjected to multiple assay screens, and processed as per the PDSP Assay Protocol Book (Version 3, March 2018). Compounds that exceeded an initial 10 uM binding threshold were then delegated for secondary dose–response analysis. This screen comprised a 45-target comprehensive panel of common brain receptor and transporter drug targets."}, "Muscarinic M5 receptor": {"biological_target": "Muscarinic M5 receptor (Homo sapiens, UniProt P08912)", "sequence (P08912 whole entry)": "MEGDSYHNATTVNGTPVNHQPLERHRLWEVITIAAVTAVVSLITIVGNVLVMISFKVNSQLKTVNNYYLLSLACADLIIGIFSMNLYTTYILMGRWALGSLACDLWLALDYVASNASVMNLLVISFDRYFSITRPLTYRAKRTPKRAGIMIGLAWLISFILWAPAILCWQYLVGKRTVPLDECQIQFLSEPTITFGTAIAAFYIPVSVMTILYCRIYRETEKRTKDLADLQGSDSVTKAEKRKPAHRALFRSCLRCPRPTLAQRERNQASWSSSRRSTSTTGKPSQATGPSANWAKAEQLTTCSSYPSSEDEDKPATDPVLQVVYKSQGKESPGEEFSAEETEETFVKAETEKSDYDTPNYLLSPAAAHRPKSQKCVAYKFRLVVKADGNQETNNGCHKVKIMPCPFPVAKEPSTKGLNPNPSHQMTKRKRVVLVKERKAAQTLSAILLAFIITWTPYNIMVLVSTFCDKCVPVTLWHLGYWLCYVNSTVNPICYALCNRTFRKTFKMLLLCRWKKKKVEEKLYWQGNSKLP", "assay": "PDSP radioligand binding", "conditions": "read-out: 3-MP concentration required to induce 50% inhibition of PDSP radioligand binding", "procedure": "as §1"}, "[1]": {"biological_target": "T1, Adrenergic Alpha2C receptor (Homo sapiens, UniProt P18825)", "T1 construct": "NIMH Psychoactive Drug Screening Program (PDSP)", "T1 sequence (P18825 whole entry)": "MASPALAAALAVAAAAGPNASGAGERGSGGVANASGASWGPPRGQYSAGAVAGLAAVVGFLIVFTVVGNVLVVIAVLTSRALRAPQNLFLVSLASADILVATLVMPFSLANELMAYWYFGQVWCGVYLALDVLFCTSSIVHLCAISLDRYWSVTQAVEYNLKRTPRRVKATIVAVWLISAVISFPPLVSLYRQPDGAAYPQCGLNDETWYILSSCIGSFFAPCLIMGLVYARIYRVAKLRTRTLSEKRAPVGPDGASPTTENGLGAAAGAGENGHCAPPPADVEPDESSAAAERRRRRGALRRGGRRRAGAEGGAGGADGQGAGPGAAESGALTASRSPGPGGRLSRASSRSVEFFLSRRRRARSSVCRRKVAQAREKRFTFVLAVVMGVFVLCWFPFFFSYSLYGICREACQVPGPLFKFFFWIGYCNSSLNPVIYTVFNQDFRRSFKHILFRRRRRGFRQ", "assay": "PDSP radioligand binding", "conditions": "read-out: 3-MP concentration required to induce 50% inhibition of PDSP radioligand binding", "procedure": "as §1"}, "[2]": {"biological_target": "T2, Serotonin 5-HT2B receptor (Homo sapiens, UniProt P41595)", "T2 construct": "NIMH Psychoactive Drug Screening Program (PDSP)", "assay": "PDSP radioligand binding", "conditions": "read-out: 3-MP concentration required to induce 50% inhibition of PDSP radioligand binding", "procedure": "as §1"}, "[3]": {"biological_target": "T3, Serotonin 5-HT1B receptor (Homo sapiens, UniProt P28222)", "T3 construct": "NIMH Psychoactive Drug Screening Program (PDSP)", "assay": "PDSP radioligand binding", "conditions": "read-out: 3-MP concentration required to induce 50% inhibition of PDSP radioligand binding", "procedure": "as §1"}, "Histamine H4 receptor": {"biological_target": "Histamine H4 receptor (Homo sapiens, UniProt Q9H3N8)", "assay": "PDSP radioligand binding", "conditions": "read-out: 3-MP concentration required to induce 50% inhibition of PDSP radioligand binding", "procedure": "as §1"}, "μ-opioid receptor": {"biological_target": "μ-opioid receptor (Homo sapiens, UniProt P35372)", "assay": "PDSP radioligand binding", "conditions": "read-out: 3-MP concentration required to induce 50% inhibition of PDSP radioligand binding", "procedure": "as §1"}, "[4]": {"biological_target": "T4, Serotonin 5-HT5A receptor (Homo sapiens, UniProt P47898)", "T4 construct": "NIMH Psychoactive Drug Screening Program (PDSP)", "T4 sequence (P47898 whole entry)": "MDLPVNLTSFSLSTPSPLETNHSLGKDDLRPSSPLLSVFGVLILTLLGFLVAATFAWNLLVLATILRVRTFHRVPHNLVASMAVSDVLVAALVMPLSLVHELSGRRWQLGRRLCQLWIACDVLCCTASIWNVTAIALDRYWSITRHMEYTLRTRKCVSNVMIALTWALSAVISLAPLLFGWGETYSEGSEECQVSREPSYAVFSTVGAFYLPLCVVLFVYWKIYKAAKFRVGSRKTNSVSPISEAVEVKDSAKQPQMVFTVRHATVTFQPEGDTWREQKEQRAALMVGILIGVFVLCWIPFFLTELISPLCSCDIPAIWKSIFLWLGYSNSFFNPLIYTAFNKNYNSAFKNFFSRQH", "assay": "PDSP radioligand binding", "conditions": "read-out: 3-MP concentration required to induce 50% inhibition of PDSP radioligand binding", "procedure": "as §1"}, "DAT transporter": {"biological_target": "DAT transporter (Homo sapiens, UniProt Q01959)", "sequence (Q01959 whole entry)": "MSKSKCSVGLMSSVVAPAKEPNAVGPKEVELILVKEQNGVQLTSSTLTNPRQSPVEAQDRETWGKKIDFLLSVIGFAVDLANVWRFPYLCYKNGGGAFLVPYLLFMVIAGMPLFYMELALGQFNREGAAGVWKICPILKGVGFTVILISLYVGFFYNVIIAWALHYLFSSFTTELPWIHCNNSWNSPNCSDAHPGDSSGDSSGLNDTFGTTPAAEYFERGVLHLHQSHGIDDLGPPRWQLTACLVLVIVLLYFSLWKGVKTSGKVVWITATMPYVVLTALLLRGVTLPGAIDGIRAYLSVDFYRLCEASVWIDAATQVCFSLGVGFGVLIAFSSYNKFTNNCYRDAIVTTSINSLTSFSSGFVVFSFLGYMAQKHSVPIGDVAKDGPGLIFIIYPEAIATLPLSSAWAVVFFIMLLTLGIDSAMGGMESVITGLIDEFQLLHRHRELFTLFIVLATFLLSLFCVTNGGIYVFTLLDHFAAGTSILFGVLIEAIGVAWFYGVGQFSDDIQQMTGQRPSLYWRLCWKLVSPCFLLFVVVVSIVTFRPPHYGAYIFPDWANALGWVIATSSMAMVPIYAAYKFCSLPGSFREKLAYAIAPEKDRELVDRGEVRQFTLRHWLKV", "assay": "PDSP radioligand binding", "conditions": "read-out: 3-MP concentration required to induce 50% inhibition of PDSP radioligand binding", "procedure": "as §1"}, "[5]": {"biological_target": "T5, Adrenergic Alpha1D receptor (Homo sapiens, UniProt P25100)", "T5 construct": "NIMH Psychoactive Drug Screening Program (PDSP)", "T5 sequence (P25100 whole entry)": "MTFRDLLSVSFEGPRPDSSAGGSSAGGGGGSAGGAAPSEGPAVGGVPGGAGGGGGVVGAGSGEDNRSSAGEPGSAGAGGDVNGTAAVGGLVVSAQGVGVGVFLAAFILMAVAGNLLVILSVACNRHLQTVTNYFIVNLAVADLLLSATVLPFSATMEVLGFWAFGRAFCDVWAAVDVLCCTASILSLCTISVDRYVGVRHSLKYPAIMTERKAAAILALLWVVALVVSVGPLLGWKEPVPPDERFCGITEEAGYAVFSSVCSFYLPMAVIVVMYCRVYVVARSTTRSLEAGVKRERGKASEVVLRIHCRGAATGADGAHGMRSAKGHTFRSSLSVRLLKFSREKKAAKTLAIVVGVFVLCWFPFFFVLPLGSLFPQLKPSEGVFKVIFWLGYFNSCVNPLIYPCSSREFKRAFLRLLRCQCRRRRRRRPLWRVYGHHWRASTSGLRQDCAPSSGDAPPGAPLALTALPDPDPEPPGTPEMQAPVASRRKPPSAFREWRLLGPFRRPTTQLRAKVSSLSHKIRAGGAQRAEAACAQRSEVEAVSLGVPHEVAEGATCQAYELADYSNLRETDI", "assay": "PDSP radioligand binding", "conditions": "read-out: 3-MP concentration required to induce 50% inhibition of PDSP radioligand binding", "procedure": "as §1"}, "Dopamine D5 receptor": {"biological_target": "Dopamine D5 receptor (Homo sapiens, UniProt P21918)", "sequence (P21918 whole entry)": "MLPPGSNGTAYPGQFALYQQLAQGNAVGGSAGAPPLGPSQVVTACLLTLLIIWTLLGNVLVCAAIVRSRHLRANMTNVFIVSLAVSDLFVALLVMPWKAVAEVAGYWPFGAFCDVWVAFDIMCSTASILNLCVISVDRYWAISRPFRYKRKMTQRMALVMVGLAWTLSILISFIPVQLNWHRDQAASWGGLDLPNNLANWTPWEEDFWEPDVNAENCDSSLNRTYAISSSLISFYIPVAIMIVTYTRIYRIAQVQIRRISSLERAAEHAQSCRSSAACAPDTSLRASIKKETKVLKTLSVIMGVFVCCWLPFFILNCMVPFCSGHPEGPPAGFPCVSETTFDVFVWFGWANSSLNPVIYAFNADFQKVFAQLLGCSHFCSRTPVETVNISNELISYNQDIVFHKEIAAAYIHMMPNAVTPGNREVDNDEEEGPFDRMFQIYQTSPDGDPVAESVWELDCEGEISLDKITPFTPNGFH", "assay": "PDSP radioligand binding", "conditions": "read-out: 3-MP concentration required to induce 50% inhibition of PDSP radioligand binding", "procedure": "as §1"}, "[6]": {"biological_target": "T6, Adrenergic Beta3 receptor (Homo sapiens, UniProt P13945)", "T6 construct": "NIMH Psychoactive Drug Screening Program (PDSP)", "T6 sequence (P13945 whole entry)": "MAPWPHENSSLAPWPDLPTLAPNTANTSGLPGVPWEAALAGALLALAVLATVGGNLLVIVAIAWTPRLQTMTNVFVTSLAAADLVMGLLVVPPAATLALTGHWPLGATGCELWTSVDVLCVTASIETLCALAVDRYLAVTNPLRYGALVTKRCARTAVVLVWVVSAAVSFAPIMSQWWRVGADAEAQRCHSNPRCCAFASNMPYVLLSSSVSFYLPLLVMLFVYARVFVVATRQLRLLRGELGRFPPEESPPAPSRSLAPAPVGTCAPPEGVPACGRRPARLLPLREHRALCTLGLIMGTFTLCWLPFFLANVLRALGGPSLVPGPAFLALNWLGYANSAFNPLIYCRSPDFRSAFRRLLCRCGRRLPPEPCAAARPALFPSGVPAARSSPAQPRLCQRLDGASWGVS", "assay": "PDSP radioligand binding", "conditions": "read-out: 3-MP concentration required to induce 50% inhibition of PDSP radioligand binding", "procedure": "as §1"}, "Sigma 2 receptor": {"biological_target": "Sigma 2 receptor (Rattus norvegicus, UniProt Q5U3Y7)", "sequence (Q5U3Y7 whole entry)": "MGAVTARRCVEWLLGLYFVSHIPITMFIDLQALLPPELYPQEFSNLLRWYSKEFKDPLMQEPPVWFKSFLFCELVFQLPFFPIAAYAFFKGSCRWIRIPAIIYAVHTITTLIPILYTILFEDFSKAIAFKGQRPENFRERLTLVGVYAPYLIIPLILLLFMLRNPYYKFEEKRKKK", "assay": "PDSP radioligand binding", "conditions": "read-out: 3-MP concentration required to induce 50% inhibition of PDSP radioligand binding", "procedure": "as §1"}, "[7]": {"biological_target": "Benzodiazepine BZP receptor", "assay": "PDSP radioligand binding", "conditions": "read-out: 3-MP concentration required to induce 50% inhibition of PDSP radioligand binding", "procedure": "as §1"}, "Dopamine D2 receptor": {"biological_target": "T7, Dopamine D2 receptor (Homo sapiens, UniProt P14416)", "T7 construct": "NIMH Psychoactive Drug Screening Program (PDSP)", "assay": "PDSP radioligand binding", "conditions": "read-out: 3-MP concentration required to induce 50% inhibition of PDSP radioligand binding", "procedure": "as §1"}, "[8]": {"biological_target": "T8, Serotonin 5-HT2C receptor (Homo sapiens, UniProt P28335)", "T8 construct": "NIMH Psychoactive Drug Screening Program (PDSP)", "T8 sequence (P28335 33-458)": "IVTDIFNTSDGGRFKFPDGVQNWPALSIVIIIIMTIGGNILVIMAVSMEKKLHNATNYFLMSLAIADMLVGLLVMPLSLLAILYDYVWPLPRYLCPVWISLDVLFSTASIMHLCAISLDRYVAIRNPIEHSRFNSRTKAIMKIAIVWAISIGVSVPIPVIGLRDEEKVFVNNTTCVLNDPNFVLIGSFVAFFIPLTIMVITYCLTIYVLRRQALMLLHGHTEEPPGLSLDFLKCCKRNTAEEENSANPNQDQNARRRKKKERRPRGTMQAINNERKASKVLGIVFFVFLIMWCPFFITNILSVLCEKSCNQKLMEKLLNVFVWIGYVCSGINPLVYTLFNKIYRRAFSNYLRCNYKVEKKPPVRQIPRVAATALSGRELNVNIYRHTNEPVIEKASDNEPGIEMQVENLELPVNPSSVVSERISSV", "assay": "PDSP radioligand binding", "conditions": "read-out: 3-MP concentration required to induce 50% inhibition of PDSP radioligand binding", "procedure": "as §1"}, "Muscarinic M3 receptor": {"biological_target": "Muscarinic M3 receptor (Homo sapiens, UniProt P20309)", "sequence (P20309 whole entry)": "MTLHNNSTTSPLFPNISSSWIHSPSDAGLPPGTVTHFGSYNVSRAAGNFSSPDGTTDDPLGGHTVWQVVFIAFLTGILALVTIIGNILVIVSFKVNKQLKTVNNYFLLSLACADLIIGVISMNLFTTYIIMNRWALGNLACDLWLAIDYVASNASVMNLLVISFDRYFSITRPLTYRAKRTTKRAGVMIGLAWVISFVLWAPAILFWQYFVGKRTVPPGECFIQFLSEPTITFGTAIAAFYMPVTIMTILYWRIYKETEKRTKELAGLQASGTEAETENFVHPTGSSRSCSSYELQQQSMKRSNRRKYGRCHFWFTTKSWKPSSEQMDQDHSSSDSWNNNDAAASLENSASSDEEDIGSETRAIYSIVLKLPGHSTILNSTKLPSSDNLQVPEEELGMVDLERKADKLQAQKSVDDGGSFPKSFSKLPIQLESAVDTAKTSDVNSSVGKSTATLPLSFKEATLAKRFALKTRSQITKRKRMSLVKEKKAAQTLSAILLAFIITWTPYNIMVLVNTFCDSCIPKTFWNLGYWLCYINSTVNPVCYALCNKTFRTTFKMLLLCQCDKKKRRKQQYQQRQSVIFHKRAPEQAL", "assay": "PDSP radioligand binding", "conditions": "read-out: 3-MP concentration required to induce 50% inhibition of PDSP radioligand binding", "procedure": "as §1"}, "[9]": {"system": "TNF-α in LPS-challenged human PBMCs", "assay": "TNF-α in media of LPS-challenged human PBMCs", "format": "cell-based", "conditions": "10 ng/ml LPS, 24 h, 3-MP 0 to 30 μM, vs LPS alone", "procedure": "(§2) Human peripheral blood mononuclear cells (PBMCs), purchased from ATCC (Cat no. PCS-800–011, Lot no. 81215231, Manassas, VA, USA), were washed with ice-cold HBSS (ATCC 30–2213) containing 10% fetal bovine serum (FBS: ATCC 30–2020) and used for the experiment directly. The washed cells were suspended and maintained in RPMI media supplemented with 10% FBS, penicillin 100 U/mL, and streptomycin 100 µg/mL at 37 °C and 5% CO2. Approximately 5 × 10^5 cells were seeded into 24-well plates and allowed to equilibrate for 2 h. Pomalidomide or 3-MP, dissolved in 100% tissue culture grade dimethylsulfoxide (DMSO: Sigma Aldrich, St Louis, MO, USA), was then added to the wells. The final concentrations of drugs were 0.0, 0.6, 1.0, 10, 30, and 60 µM (n = 3–4 for each group). At 1 h after initiation of treatment, the cells were challenged with lipopolysaccharide (LPS, Sigma Aldrich, E.Coli 055:B5, Cat no. L4005-100MG, Lot no. 0000218759, Endotoxin Unit: 500,000 EU/mg, at a concentration of 10 ng/mL), and the media was collected after a further 24 h for evaluation of lactate dehydrogenase (LDH) activity as a marker of drug-induced cellular toxicity and concentrations of nitrite (In Vitro Toxicology Assay Kit, Lactic Dehydrogenase based, Promega, Cat no. G7891, Madison, WI, USA) (Griess Reagent System, Promega, Cat no. G2930) and TNF-α (human TNF-α ELISA MAX™ Deluxe Set Cat no. […]"}, "[10]": {"system": "plasma TNF-α, IL-1β, IL-6, IL-10 in MCAo-challenged rats", "assay": "MCAo ischemic stroke: plasma cytokines at 48 h", "format": "in vivo", "conditions": "rat MCAo, 3-MP I.P., plasma at 48 h"}, "[11]": {"assay": "Pharmacokinetics in the rat, I.V. and P.O.", "format": "in vivo", "procedure": "To evaluate the metabolism of 3-MP, ex vivo plasma and liver homogenate studies were performed across species (rat and human), and in vivo pharmacokinetic studies were performed in rats following intravenous (I.V.) and oral (P.O.) administration of 3-MP (5 mg/kg) to time-dependently follow its disappearance from the plasma compartment.\nFig. 5 3-MP pharmacokinetics. 3-MP was administered to rats via the intravenous (I.V.) and oral (P.O.) routes, and time-dependent plasma levels were obtained and subjected to LC–MS/MS analysis (n = 3/group). Pharmacokinetic profile of 3-MP following a 5 mg/kg dose by either the I.V. or P.O route. Time-dependent plasma concentrations of 3-MP (n = 3/group)"}, "human PBMCs": {"system": "human PBMCs", "assay": "LDH in media of LPS-challenged human PBMCs (cellular toxicity)", "format": "cell-based", "conditions": "10 ng/ml LPS, 24 h, 3-MP 0 to 30 μM, vs LPS alone", "procedure": "as §2"}, "[12]": {"conditions": "iv, rat plasma, I.V. bolus 5 mg/kg"}}, "note": "Like-named read-outs stand apart in the source and are kept apart here.", "data": [{"smiles": "Nc1cccc2c1C(=S)N(C1CCC(=O)NC1=O)C2=O", "note": "(stereo not shown) [3-MP, 3-Monothiopomalidomide]", "values": [{"measurement": "IC50", "setting": "Muscarinic M2 receptor", "value": "> 10", "unit": "µM"}, {"measurement": "IC50", "setting": "Muscarinic M5 receptor", "value": "> 10", "unit": "µM"}, {"measurement": "IC50", "setting": "[1]", "value": "> 10", "unit": "µM"}, {"measurement": "IC50", "setting": "[2]", "value": "> 10", "unit": "µM"}, {"measurement": "IC50", "setting": "[3]", "value": "> 10", "unit": "µM"}, {"measurement": "IC50", "setting": "Histamine H4 receptor", "value": "> 10", "unit": "µM"}, {"measurement": "IC50", "setting": "μ-opioid receptor", "value": "> 10", "unit": "µM"}, {"measurement": "IC50", "setting": "[4]", "value": "> 10", "unit": "µM"}, {"measurement": "IC50", "setting": "DAT transporter", "value": "> 10", "unit": "µM"}, {"measurement": "IC50", "setting": "[5]", "value": "> 10", "unit": "µM"}, {"measurement": "IC50", "setting": "Dopamine D5 receptor", "value": "> 10", "unit": "µM"}, {"measurement": "IC50", "setting": "[6]", "value": "> 10", "unit": "µM"}, {"measurement": "IC50", "setting": "Sigma 2 receptor", "value": "> 10", "unit": "µM"}, {"measurement": "IC50", "setting": "[7]", "value": "> 10", "unit": "µM"}, {"measurement": "IC50", "setting": "Dopamine D2 receptor", "value": "> 10", "unit": "µM"}, {"measurement": "IC50", "setting": "[8]", "value": "> 10", "unit": "µM"}, {"measurement": "IC50", "setting": "Muscarinic M3 receptor", "value": "> 10", "unit": "µM"}, {"measurement": "TNF-α levels in media", "setting": "[9]", "value": "dose-dependently reduced"}, {"measurement": "MCAo-induced elevation in plasma IL-1β", "setting": "[10]", "value": "significantly mitigated"}, {"measurement": "MCAo-induced elevation in plasma IL-6", "setting": "[10]", "value": "significantly mitigated"}, {"measurement": "MCAo-induced elevation in plasma TNF-α", "setting": "[10]", "value": "significantly mitigated"}, {"measurement": "plasma anti-inflammatory IL-10 levels", "setting": "[10]", "value": "rise"}, {"measurement": "AUC(0-inf)", "setting": "[11]; [12]", "value": 15200, "unit": "ng·h/mL"}, {"measurement": "AUC(0-t)", "setting": "[11]; [12]", "value": 15100, "unit": "ng·h/mL"}, {"measurement": "C0", "setting": "[11]; [12]", "value": 8150, "unit": "ng/mL"}, {"measurement": "clearance", "setting": "[11]; plasma, iv, rat, I.V. bolus 5 mg/kg", "value": 5.65, "unit": "mL/min/kg"}, {"measurement": "Vd", "setting": "[11]; plasma, iv, rat, I.V. bolus 5 mg/kg, read-out: Vdss", "value": 0.693, "unit": "L/kg"}, {"measurement": "AUC(0-inf)", "setting": "[11]; po, rat plasma, P.O. 5 mg/kg", "value": 5860, "unit": "ng·h/mL"}, {"measurement": "AUC(0-t)", "setting": "[11]; po, rat plasma, P.O. 5 mg/kg", "value": 5560, "unit": "ng·h/mL"}, {"measurement": "Cmax", "setting": "[11]; po, rat plasma, P.O. 5 mg/kg", "value": 1020, "unit": "ng/mL"}, {"measurement": "T1/2", "setting": "[11]; rat plasma, P.O. 5 mg/kg, 5 mg/kg", "value": 3.21, "unit": "h"}, {"measurement": "half-life", "setting": "[11]; rat, plasma, iv, 5 mg/kg, rat plasma, I.V. bolus 5 mg/kg", "value": 1.56, "unit": "h"}, {"measurement": "bioavailability", "setting": "[11]; rat, plasma, oral, 5 mg/kg, rat, P.O. vs I.V., 5 mg/kg", "value": "~38.5", "unit": "%"}, {"measurement": "half-life", "setting": "[11]; rat, plasma, po, 5 mg/kg, rat plasma, P.O. 5 mg/kg", "value": 3.2, "unit": "h"}, {"measurement": "Tmax", "setting": "[11]; rat, plasma, po, 5 mg/kg, rat plasma, P.O. 5 mg/kg, read-out: Tmax", "value": 1.67, "unit": "h"}, {"measurement": "Tmax", "setting": "[11]; rat, plasma, po, 5 mg/kg, rat, oral gavage 5 mg/kg, read-out: time of peak concentration in plasma (converted)", "value": 1.67, "unit": "h"}, {"measurement": "LDH media levels", "setting": "human PBMCs", "value": "without elevating"}]}]}
